Read-outs that look alike come from different tables or passages of the source.

Data set [1] has as its target T1, human NK-3 receptor (Homo sapiens, UniProt P29371).
T1 construct: expressed in transfected cells; host or cells: HEK293
T1 sequence (P29371 1-465): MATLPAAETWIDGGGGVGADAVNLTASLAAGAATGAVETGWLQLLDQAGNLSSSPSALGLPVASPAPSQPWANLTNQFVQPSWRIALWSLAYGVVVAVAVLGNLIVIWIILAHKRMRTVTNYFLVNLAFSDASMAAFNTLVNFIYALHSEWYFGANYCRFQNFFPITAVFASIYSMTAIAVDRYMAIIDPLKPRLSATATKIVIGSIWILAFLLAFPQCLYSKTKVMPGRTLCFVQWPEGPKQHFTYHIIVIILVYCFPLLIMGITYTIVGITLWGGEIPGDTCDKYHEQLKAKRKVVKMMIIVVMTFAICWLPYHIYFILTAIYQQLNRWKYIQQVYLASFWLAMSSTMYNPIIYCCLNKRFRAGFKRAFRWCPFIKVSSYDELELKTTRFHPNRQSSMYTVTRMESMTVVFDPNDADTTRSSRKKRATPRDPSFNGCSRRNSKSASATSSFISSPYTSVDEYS
The experiment in a line: Antagonistic activity on human NK-3 receptor in human NK-3R/HEK293 stably transfected cells (Fluo-4, FLIPR, Neurokinin B as agonist). The conditions noted are these: human NK-3R/HEK293 cells. It is filed as cell-based. The method, boiled down:
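HEK293 cells stably expressing human NK-3R loaded with Component A dye 2 h at 37° C, then preincubated with serially 3-fold diluted compound 30 min at 25° C. Neurokinin B (2.5 nM, 6× stock) added on FLIPR Tetra to read calcium signal. IC50 from inhibition curves versus reference agonist.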

Data set [2] is described as follows: Pharmacokinetic test in rats (gavage 3 mg/kg, intravenous 1 mg/kg). It is filed as in vivo. Conditions: rat, plasma, SD rats; for Cmax: read-out: Blood concentration Cmax; for AUC: read-out: Curve area AUC; for half-life: read-out: Half life T1/2 (converted). Here is the method: Test Example 2: Pharmacokinetic Test of Compounds of the present invention in Rats
(§1) To study in vivo pharmacokinetic behaviors of the compounds of the present invention in rats, and evaluate pharmacokinetic characteristics thereof.
An appropriate amount of sample was weighed, and ultrasonically prepared into a 0.3 mg/mL suspension for the gavage administration group; and was prepared into a 0.2 mg/mL suspension for the intravenous administration group as per a formula of 5% DMSO+10% Solutol+85% (20% SBE-β-CD).
SD rats were fasted overnight, and then administered by gavage at a dosage of 3 mg/kg and by intravenous injection at a dosage of 1 mg/kg, respectively.
0.1 mL of blood was collected before administration and at 5 min, 15 min, 30 min, 1 h, 2 h, 4 h, 8 h, and 24 h after administration, transferred into heparinized tubes, and centrifuged at 3500 rpm for 10 min to separate the plasma, which was stored at −20° C. 4 h after administration, the animals were resumed for feeding/free access to water.
Contents of the test compounds in plasma of the rats after gavage administration were determined by LC/MS/MS.

Data set [3] deals with MDR1. In words: In vitro brain model test: MDR1-MDCKII bidirectional permeability. Conditions: dog; for Papp A→B at 2.5 h, 2 μM / Papp B→A at 2.5 h, 2 μM: MDCK-MDR1, pH 7.4, 2 μM, pH7.4. Format: in vitro ADME. Here is the method: The test product was diluted from dimethyl sulfoxide stock solution to a concentration of 2 μM (dimethyl sulfoxide <1%) with a transfer buffer (HBSS containing 10 mM Hepes, pH7.4); and was applied to apical or basolateral cavities of the cell monolayer. Penetration of the test compound from the direction A to the direction B or from the direction B to the direction A was determined in duplicate. Digoxin was detected at 10 μM in the direction of A-B, or detected in the direction of B-A, while Nadolol and Metoprolol were detected at 2 μM in the direction of A-B in duplicate. The plate was cultivated in a CO2 incubator at 37±1° C. for 2.5 h with 5% CO2 at a saturated humidity without shaking. Further, the efflux rate of each compound was also determined. According to the peak area ratio of analyte/IS, the test product and the control product were quantitatively analyzed by LC-MS/MS.
After the transfer test, the monolayer integrity of cells was determined by a lucifer yellow exclusion assay. Buffer was removed from apical and basolateral cavities, and then 75 μL of 100 μM lucifer yellow and 250 μL of transfer buffer were added into the apical and basolateral cavities, respectively. The culture dish was cultivated at 37° C., 5% CO2, and saturated humidity for 30 min without shaking. After incubation for 30 min, 20 μL of lucifer yellow sample was extracted from the top, and then 60 μL of the transfer buffer was added. Then, 80 μL of lucifer yellow sample was extracted basolaterally. Relative Fluorescence Units (RFU) of lucifer yellow were measured at 425/528 nm (excitation/emission) with an Envision plate reader.

A short description of data set [4]: Pharmacokinetic test in rats: plasma and brain concentration after gavage 3 mg/kg. Format: in vivo. The conditions noted are these: rat, oral, SD rats. How it is done: Test Example 4: Pharmacokinetic Test of Compounds of the Present Invention in Rats
as §1
An appropriate amount of sample was weighed, and ultrasonically prepared into a 0.3 mg/mL suspension for the gavage administration group as per a formula of 5% DMSO+10% Solutol+85% (20% SBE-β-CD).
SD rats were fasted overnight, and then administered by gavage at a dosage of 3 mg/kg respectively.
Blood and cerebrospinal fluid were collected at designed time points after administration, and then brain tissue was collected after cardiac perfusion with normal saline. Plasma was collected by centrifugation within 1 h, and then immediately transferred onto wet ice. Centrifugation conditions: 4-10° C., 8,000 rpm, 6 min. 4 h after administration, the animals were resumed for feeding/free access to water.
The concentrations of corresponding compounds in plasma and cerebrospinal fluid were detected by LC-MS/MS.

Where [5] appears, read: brain/plasma, read-out: B/P ratio.

One may read the IC50 as the concentration needed to halve the response being measured. The low end stands for inhibition by little substance, the high end for a need for much substance. The term bioavailability denotes the share of a dose that reaches the circulation, judged against a reference dose that is usually intravenous. A word on the AUC: it is concentration integrated over time. Broadly, the Papp A→B is the apparent permeability from the apical to the basolateral side of a cell layer. As a reminder, the Papp B→A is the apparent permeability from the basolateral to the apical side of a cell layer. `Cc1nsc(-c2nc(-c3cc(F)ncc3F)c3n2CCN(C(=O)c2ccc(F)cc2)[C@@H]3C)n1` [Compound 077, (R)-(1-(2,5-difluoropyridin-4-yl)-8-methyl-3-(3-methyl-1,2,4-thiadiazol-5-yl)-5,6-dihydroimidazo[1,5-a]pyrazin-7 (8H)-yl)(4-fluorophenyl)methanone] gave an IC50 in data set [1] of 0.0145 µM. The bioavailability in data set [2] (po, gavage 3 mg/kg vs intravenous 1 mg/kg, read-out: Oral bioavailability F (%)) is 58.4%. Also, in data set [2] (po, gavage 3 mg/kg), the Cmax stood at 0.494 ± 0.0706 µg/mL. In addition, the AUC in data set [2] (po, gavage 3 mg/kg) was found to be 9.86 ± 3.55 µg·h/mL; in data set [2] (intravenous injection 1 mg/kg) it was 5.17 ± 0.581 µg·h/mL. The half-life in data set [2] (po, gavage 3 mg/kg) was 11.7 ± 7.72 h; in data set [2] (intravenous injection 1 mg/kg), 11.8 ± 3.54 h. Further, the apical-to-basolateral permeability (Papp A→B) at 2.5 h, 2 μM in data set [3] stood at 183 nm/s. This molecule gave a Papp B→A at 2.5 h, 2 μM in data set [3] of 140 nm/s. In addition, the efflux ratio at 2.5 h, 2 μM in data set [3] (MDCK-MDR1, pH 7.4, B to A / A to B, read-out: Efflux rate) is 0.77. Moreover, the concentration at 0.5 h in data set [4] (brain, sampling time 0.5 h, read-out: Brain conc.) came out at 2.57 ± 0.178 µg/mL; in data set [4] (plasma, sampling time 0.5 h, read-out: Plasma conc.), 0.798 ± 0.0798 µg/mL. Besides, the concentration at 2 h in data set [4] (brain, read-out: Brain conc.) was determined as 1.98 ± 0.232 µg/mL; in data set [4] (plasma, read-out: Plasma conc.), 0.547 ± 0.0945 µg/mL. Besides, the concentration at 8 h in data set [4] (brain, sampling time 8 h, read-out: Brain conc.) turned out to be 2.02 ± 0.406 µg/mL; in data set [4] (plasma, sampling time 8 h, read-out: Plasma conc.), 0.598 ± 0.0749 µg/mL. For the same molecule, the Kp at 0.5 h in data set [4] (brain/plasma, sampling time 0.5 h, read-out: B/P ratio) is 3.25. For the same molecule, the Kp at 2 h in data set [4] (setting [5]) stood at 3.66. Moreover, the Kp at 8 h in data set [4] (brain/plasma, sampling time 8 h, read-out: B/P ratio) was determined as 3.36.

Regarding `Cc1nsc(-c2nnc3n2CCN(C(=O)c2ccc(F)cc2)[C@@H]3C)n1` [Fezolinetant, reference compound], in data set [1], the half-maximal inhibitory concentration (IC50) amounted to 0.734 µM. Further, the Cmax in data set [2] (po, gavage 3 mg/kg) came out at 2.18 µg/mL. Besides, the AUC stood at 10.1 µg·h/mL in data set [2] (po, gavage 3 mg/kg) and 2.67 µg·h/mL in data set [2] (intravenous injection 1 mg/kg). The half-life was 3.22 h in data set [2] (po, gavage 3 mg/kg) and 1.94 h in data set [2] (intravenous injection 1 mg/kg). The molecule also yielded an apical-to-basolateral permeability (Papp A→B) at 2.5 h, 2 μM in data set [3] of 262 nm/s. This molecule returned a Papp B→A at 2.5 h, 2 μM in data set [3] of 284 nm/s. Also, the concentration at 1 h is 0.512 ± 0.0884 µg/mL in data set [4] (brain, sampling time 1 h, read-out: Brain conc.) and 1.33 ± 0.177 µg/mL in data set [4] (plasma, sampling time 1 h, read-out: Plasma conc.). Further, the concentration at 2 h in data set [4] (brain, read-out: Brain conc.) was 0.585 ± 0.117 µg/mL; in data set [4] (plasma, read-out: Plasma conc.) it was 1.28 ± 0.11 µg/mL. The concentration at 4 h is 0.419 ± 0.0371 µg/mL in data set [4] (brain, sampling time 4 h, read-out: Brain conc.) and 0.961 ± 0.021 µg/mL in data set [4] (plasma, sampling time 4 h, read-out: Plasma conc.). Moreover, in data set [4] (brain/plasma, sampling time 1 h, read-out: B/P ratio), the Kp at 1 h was 0.38. Besides, in data set [4] (setting [5]), the Kp at 2 h is 0.46. Besides, the Kp at 4 h in data set [4] (brain/plasma, sampling time 4 h, read-out: B/P ratio) turned out to be 0.44.
